Laboratory results from patent US20080305157A1, “Encapsulation and separation of charged organic solutes inside catanionic vesicles” (University of Maryland Office of Technology …, priority 2007, published 2008).
Where “and” joins values, the source holds several entries; their conditions need not be identical. Equal entries are not always repeated. Structures can show the parent of a compound that is named as a salt.

Columns and labels:
[1] = Apparent encapsulation efficiency (ε) of solutes in vesicles by SEC and UV-vis; type: physicochemical; details: 1 wt% surfactant, 1 mM solute; for ε (Apparent Encapsulation Efficiency) SDBS-Rich V^−: V^− vesicles 3:7 w/w CTAT:SDBS; for ε (Apparent Encapsulation Efficiency) CTAT-Rich V^+: V^+ vesicles 7:3 w/w CTAT:SDBS
Experimental: For the determination of encapsulation efficiencies, vesicles were prepared using aqueous solutions containing 1.0 mM carboxyfluorescein (CF) dye. The formation of CTAT-rich vesicles (7:3 CTAT to SDBS w/w) appeared to be inhibited at CF concentrations of 5 mM or greater. High concentrations of CF (and similarly, other solutes) tended to disrupt the vesicles and lead to precipitation over time. Vesicle stability appeared to be unaffected when the solute concentration is kept below 5 mM, and at these concentrations solute encapsulation does occur. For CF, a pH ˜9 was required in order to fully dissolve the dye, and the stock solutions were adjusted accordingly. The CF/CTAT/SDBS solutions were stirred for 15-30 min and the resulting vesicle solutions were allowed to equilibrate in the dark at room temperature for at least 48 h. Dynamic light scattering (DLS) was then used to confirm vesicle formation. SDBS-rich vesicles (e.g., 3:7 CTAT to SDBS w/w) could be prepared with higher CF concentrations (up to ca. 100 mM); however CF encapsulation in these vesicles was reduced relative to that of CTAT-rich vesicles and in many cases CF encapsulation by SDBS-rich vesicles (i.e., the formation of distinct bands in the chromatography column, see below) was not achieved.
(§1) The apparent encapsulation efficiencies of the two vesicle preparations, V^+ and V^−, were also evaluated for the other solute molecules shown in FIG. 9. A solute concentration of 1 mM was used in all cases. Lucifer yellow (LY) is dianionic in water and Sulforhodamine 101 (SR101) is monanionic. […] Doxorubicin hydrochloride (Dox) is a cationic drug with a pKa of ˜7.619 that has been used to treat a variety of cancers. […] In each case, vesicles were prepared using aqueous solutions of the solute at a concentration of 1 mM. The solute/CTAT/SDBS mixtures were stirred for 30-60 min, or overnight, and the resulting vesicle solutions were allowed to equilibrate in the dark at room temperature for at least 48 h. Thereafter, the samples were passed through a 25 mm syringe filter (0.45 μm mesh) to remove any impurities. Dynamic light scattering was conducted to confirm vesicle formation and to measure the average vesicle size.
To measure the apparent encapsulation efficiency ε, size exclusion chromatography (SEC) was used to separate the free solute from that encapsulated by the vesicles. A 2×25 cm column packed with Sephadex G50 resin (medium mesh, Amersham Biosciences) or a 1.3 cm×21 cm SEC column packed with Sephadex G50 resin (medium mesh, from Amersham Biosciences) was used. An aliquot of the vesicle-solute sample was run through the SEC column.
During elution, vesicle solutions divided into bands that were visible with the naked eye or by UV lamp, e.g., in the case of CF dye containing vesicles, two clear bands, the leading band containing the dye-bearing vesicles and the second band containing the free dye. During elution, fractions were collected and analyzed, and a series of such fractions for a typical experiment is shown in FIG. 6 (the solute in FIG. 6 is CF). The band containing the vesicles was collected for further studies of vesicle leakage, as described below. Dynamic light scattering was used to determine which of the eluted fractions contained vesicles, and the vesicles were consistently found to elute at 5.5 ml, total elution volume.
The amount of solute in each fraction was determined using UV-vis spectroscopy (Hitachi U-3010 Spectrometer). The encapsulation efficiency (ε) value is defined as the amount of encapsulated solute relative to the total initial amount of solute:
V designates volume, A designates absorbance, i denotes initial values taken from the original preparation, and f denotes values taken from the fractions eluted from the SEC column shown by dynamic light scattering to contain vesicles. Thus, the value of ε gives percentage of dye that is captured by the vesicles during their preparation. […]

[2] = Vesicle radius by dynamic light scattering (DLS); type: physicochemical; details: for Vesicle Radius after SEC by DLS CTAT-Rich V^+: V^+ vesicles with 1 mM solute; for Vesicle Radius after SEC by DLS SDBS-Rich V^−: V^− vesicles with 1 mM solute
Experimental: Vesicle sizes in solution were monitored using dynamic light scattering (DLS) on a Photocor-FC instrument. The light source was a 5 mW laser at 633 nm and the scattering angle was 90°. A logarithmic correlator was used to obtain the autocorrelation function, which was analyzed by the method of cumulants to yield a diffusion coefficient. The apparent hydrodynamic size of the vesicles was obtained from the diffusion coefficient through the Stokes-Einstein relationship. The intensity (total counts) of the signal was also recorded for each sample.
as §1
A low solute concentration, e.g., 1 mM, was used in the experiments to ensure the stability of our vesicle formulations. […] Even at a concentration of 1 mM, some solutes may have a large effect on vesicle morphology. To study these aspects in some detail, dynamic light scattering (DLS) and small angle neutron scattering (SANS) were used. DLS was performed on purified vesicles obtained from the SEC column (after removing all the free solute); the sizes of solute-containing vesicles were compared with the sizes of neat vesicles (no solute). DLS gave radii of 74 nm for neat V^+ vesicles and 70 nm for neat V^− vesicles. Passing these neat vesicles through an SEC column changed their sizes slightly and the new radii were 81 nm for V^+ and 98 nm for V^− vesicles. […] However, while 1 mM of the anionic solute Lucifer yellow (LY) had no effect on V^− vesicles, it induced a 2.5 fold increase in the radii of V^+ vesicles.

[3] = Dye adsorption: dye added to preformed vesicles, then SEC; type: physicochemical
[4] = Long-term CF release from vesicles by self-quenching fluorescence, R(t); type: physicochemical
Experimental: The self-quenching behavior of carboxyfluorescein (CF) was used to monitor dye efflux from vesicles. CF is a widely used probe for vesicle encapsulation due to its ability to undergo efficient self-quenching of fluorescence at millimolar concentrations. For example, when 60 mM CF is entrapped in vesicles, its fluorescence intensity is reduced by 60-80%, but as the dye is released from the vesicle, and thus diluted by the surrounding buffer, its fluorescence intensity increases.
Samples were checked on a specific day by placing a fixed aliquot (1.5 mL) into a 1 cm cuvette and monitoring its emission at 520 nm while exciting at 490 nm using a Spex Fluorolog-3 spectrometer. The intensity was monitored for several minutes to establish the baseline fluorescence intensity, which contains a contribution from both free and encapsulated dyes. After the baseline was established, 100 uL of 10% (w/w) aqueous Triton X-100 was added to disrupt the vesicles. Vesicle disruption results in the release of all dye molecules into solution and a concomitant increase in fluorescence. For these experiments, a substantial volume of sample was prepared on the first day and run on the SEC column to remove free dye. […] The traces show the emission intensity before and after the addition of Triton X-100, a nonionic detergent that disrupts both lipid and surfactant vesicles. […] As expected, the largest jump occurs for the freshly prepared vesicle solution where all the dye is encapsulated in the vesicles. We compare the magnitude of the jump on Day x with the highest jump (Day 0) and thereby obtain the fraction of the dye released on day x, R(t=x), the calculation of which is described below. […]
To monitor long-term leakage rates, the fraction of dye released as a function of time, R(t), was calculated for a given day. This quantity measures the fraction of encapsulation on Day x relative to the initial value on Day 0:
where F(initial) and F(final) are the fluorescence intensities before and after adding the Triton X-100. […]

[5] = type: physicochemical
Experimental: A more general procedure based on SEC that can be applied to a wide range of solutes, including non-self-quenching and non-fluorescent ones was also used. The initial vesicle-solute mixture was purified using SEC (as described above) to remove the free, unencapsulated solute. The sample was then checked for release of solute from the vesicles over the course of several weeks. For this purpose, small-scale separations using quick-spin columns pre-packed with Sephadex G50 (fine) were performed (column from Roche, additional beads for repacking the columns from Sigma). On a specific day, a 100 μL aliquot was run through a quick-spin column by centrifugation (3000 rpm, 15 s), and the eluted fraction was evaluated using UV-vis spectroscopy. Any solute that had been released from the vesicles was retained by the quick-spin column. Therefore, the amount of solute eluted by the column corresponded to the solute still encapsulated by the vesicles. The UV-vis absorption value for the eluted sample was divided by the corresponding value obtained on day zero (immediately after SEC) to yield a fraction of solute that remains encapsulated in the vesicles. This method directly yielded the apparent encapsulation, ε, as a function of time. […]

[6] = Separation of oppositely charged solute mixtures with catanionic vesicles by SEC; type: physicochemical; details: for Dye carried through SEC column within the V^+ vesicle band / Dye in the V^− vesicle band emerging from SEC column: equimolar CF and R6G, total dye 0.5 mM; for Dye carried through SEC column within the V^+ vesicle band: V^+ vesicles; for Dye in the V^− vesicle band emerging from SEC column: V^− vesicles; for Separation of LY and Dox by catanionic vesicles in SEC: total compound concentration 1 mM
Experimental: Catanionic vesicles were prepared with equimolar mixtures of two solutes, the cationic organic dye rhodamine 6G (R6G) and the anionic dye carboxyfluorescein (CF). The total solute concentration was maintained at either 0.5 or 1.0 mM, and experiments were done with both positively charged vesicles (V^+) (excess of cationic CTAT) and negatively charged vesicles (V^−) (excess of anionic SDBS) formed from cetyltrimethylammonium tosylate (CTAT) and sodium dodecylbenzenesulfonate (SDBS).
Experiments with these solute mixtures were performed and analyzed by performing size exclusion chromatography on the sample and measuring the dye concentration of each fraction to obtain an apparent encapsulation value, ε, for each dye (see below). The dye concentration in each fraction was determined by UV-vis spectroscopy. To account for the overlapping of the dye spectra, we subtracted a scaled spectrum of pure R6G from the total spectrum in order to find the peak absorbance of CF.

[7] = Apparent encapsulation efficiency (ε) of solutes in vesicles by SEC and UV-vis; type: physicochemical; details: inner water pool only
[8] = cited from earlier work

Compound	ε (Apparent Encapsulation Efficiency) SDBS-Rich V^− [1]	Effect of solute on V^+ vesicle radii ([2]; 1 mM solute)	Effect of solute on V^− vesicle radii ([2]; 1 mM solute)	Vesicle Radius after SEC by DLS CTAT-Rich V^+ [2] [nm]	Vesicle Radius after SEC by DLS SDBS-Rich V^− [2] [nm]	Electrostatic adsorption contribution to overall apparent encapsulation efficiency ε ([3]; CF added to pre-formed V^+ vesicles vs vesicles formed with CF)	Release rate slower than from EYPC vesicles ([4]; CF from V^+ vesicles vs EYPC vesicles)	Period over which CF dye is released ([4]; EYPC vesicles)	Release of CF ([4]; V^+ vesicles, after 27 days)	Half life in the vesicles [5] [days]	Retention of solute relative to liposomes ([5]; catanionic vesicles vs EYPC liposomes)	Dye carried through SEC column within the V^+ vesicle band [6]	Dye in the V^− vesicle band emerging from SEC column [6]	Actual encapsulation efficiency for dye in the V^+ water pool [7]	ε (Apparent Encapsulation Efficiency) CTAT-Rich V^+ [1] [%]	ε (Apparent Encapsulation Efficiency) SDBS-Rich V^− ([1]; hydrochloride) [%]	Separation of LY and Dox by catanionic vesicles in SEC [6]	ε when dye added to pre-made vesicles, as share of Table 1 value ([3]; R6G added to pre-made V^− vesicles)	Increase in the radii of V^+ vesicles ([2]; 1 mM solute, vs neat vesicles) [fold]	pKa [8]
5(6)-carboxyfluorescein [CF]	1.0 ± 0.4%	essentially unchanged	essentially unchanged	87 ± 5	91 ± 8	about 75%	at least 40 times	about 5 days	approximately 20%	114	40-60 times	31%	negligible	ca. 5%	–	–	–	–	–	–
COc1cccc2c1C(=O)c1c(O)c3c(c(O)c1C2=O)C[C@@](O)(C(=O)CO)C[C@@H]3O[C@H]1C[C@H](N)[C@H](O)[C@H](C)O1 [Dox, doxorubicin hydrochloride]	–	–	–	143 ± 32	93 ± 4	–	–	–	–	–	–	–	–	–	0	55	Very efficient separation	–	–	~7.619

Continued, in another order:

ε (Apparent Encapsulation Efficiency) SDBS-Rich V^− [1]	Effect of solute on V^+ vesicle radii ([2]; 1 mM solute)	Effect of solute on V^− vesicle radii ([2]; 1 mM solute)	Vesicle Radius after SEC by DLS CTAT-Rich V^+ [2] [nm]	Vesicle Radius after SEC by DLS SDBS-Rich V^− [2] [nm]	Electrostatic adsorption contribution to overall apparent encapsulation efficiency ε ([3]; CF added to pre-formed V^+ vesicles vs vesicles formed with CF)	Release rate slower than from EYPC vesicles ([4]; CF from V^+ vesicles vs EYPC vesicles)	Period over which CF dye is released ([4]; EYPC vesicles)	Release of CF ([4]; V^+ vesicles, after 27 days)	Half life in the vesicles [5] [days]	Retention of solute relative to liposomes ([5]; catanionic vesicles vs EYPC liposomes)	Dye carried through SEC column within the V^+ vesicle band [6]	Dye in the V^− vesicle band emerging from SEC column [6]	Actual encapsulation efficiency for dye in the V^+ water pool [7]	ε (Apparent Encapsulation Efficiency) CTAT-Rich V^+ [1] [%]	ε (Apparent Encapsulation Efficiency) SDBS-Rich V^− ([1]; hydrochloride) [%]	Separation of LY and Dox by catanionic vesicles in SEC [6]	ε when dye added to pre-made vesicles, as share of Table 1 value ([3]; R6G added to pre-made V^− vesicles)	Increase in the radii of V^+ vesicles ([2]; 1 mM solute, vs neat vesicles) [fold]	Compound	pKa [8]
72% and 72 ± 3%	–	–	156 ± 24	109 ± 16	–	–	–	–	–	–	no detectable	88%	–	0.07 ± 0.1	–	–	ca. 85%	–	CCN=c1cc2oc3cc(NCC)c(C)cc3c(-c3ccccc3C(=O)OCC)c-2cc1C.Cl [R6G, rhodamine 6G]	–
8.2%	–	–	122 ± 38	84 ± 7	–	–	–	–	–	–	–	–	–	32.8	–	–	–	–	O=S(=O)([O-])c1cc(S(=O)(=O)O)ccc1C1=c2cc3c4c(c2Oc2c1cc1c5c2CCCN5CCC1)CCC[N+]=4CCC3 [SR 101, sulforhodamine 101]	–
4%	–	no effect	208 ± 18	96 ± 3	–	–	–	–	–	–	–	–	–	40 ± 20	–	Very efficient separation	–	2.5	Lucifer yellow [LY]	–
